ChEMBL document CHEMBL1687865, “Antifungal lipopeptides from Bacillus amyloliquefaciens strain BO7” (J Nat Prod, 2011)
In brackets after ≈: the same amount, converted by molar mass. *1 amine or outer side, *2 acyl side, *3 side chain or, on linkers, in order; H or OH if unused. Where a SMILES comes first, the peptide text is derived from it. Bridges are numbered along the chain shown (N, C = ends). X1 = CCCCCCCCCCCCCCC[C@H](CC(=O)[*:1])O[*:2]; X2 = CCCCCCCCCCCCCC[C@H](CC(=O)[*:1])O[*:2]; X3 = CCCCCCCCCCCCC[C@H](CC(=O)[*:1])O[*:2]

Key:
[1] = Antifungal activity against Fusarium oxysporum f. sp. lycopersici 4287 assessed as reduction in mycelium growth at 50 ppm after 72 hrs by spectrophotometric analysis; assay type: functional; design: scale not given: the % may be the effect or the level left
[2] = Antifungal activity against Fusarium oxysporum f. sp. lycopersici 4287 assessed as reduction in mycelium growth at 100 ppm after 72 hrs by spectrophotometric analysis; assay type: functional; design: scale not given: the % may be the effect or the level left
Penicillium digitatum = assay: […] activity against Penicillium digitatum; assay type: functional, organism-based

| EC50 (Penicillium digitatum) [µg/mL] | SMILES | Activity [1] [%] | Activity [2] [%] |
| --- | --- | --- | --- |
| 88.5 (≈ 84.2 µM) | CCCCCCCCCCCCCCC[C@@H]1CC(=O)N[C@@H](CCC(=O)O)C(=O)N[C@@H](CC(C)C)C(=O)N[C@@H](CC(C)C)C(=O)N[C@@H](C)C(=O)N[C@@H](CC(=O)O)C(=O)N[C@@H](CC(C)C)C(=O)N[C@@H](CC(C)C)C(=O)O1 (ELLADLL; linker N-C via X1) | 25 | 56 |
|  | CCCCCCCCCCCCCC[C@@H]1CC(=O)N[C@@H](CCC(=O)O)C(=O)N[C@@H](CC(C)C)C(=O)N[C@@H](CC(C)C)C(=O)N[C@@H](C)C(=O)N[C@@H](CC(=O)O)C(=O)N[C@@H](CC(C)C)C(=O)N[C@@H](CC(C)C)C(=O)O1 (ELLADLL; linker N-C via X2) |  | 11 |
|  | CCCCCCCCCCCCC[C@@H]1CC(=O)N[C@@H](CCC(=O)O)C(=O)N[C@@H](CC(C)C)C(=O)N[C@@H](CC(C)C)C(=O)N[C@@H](C)C(=O)N[C@@H](CC(=O)O)C(=O)N[C@@H](CC(C)C)C(=O)N[C@@H](CC(C)C)C(=O)O1 (ELLADLL; linker N-C via X3) |  | 29 |
